Reference: ChEMBL document CHEMBL4819064, “Discovery of new pyrimidopyrrolizine/indolizine-based derivatives as P-glycoprotein inhibitors: Design, synthesis, cytotoxicity, and MDR reversal activities” (Eur J Med Chem, 2021)

Columns and labels:
MCF7 [1] = test: Cytotoxicity against human MCF7 cells assessed as reduction in cell viability incubated for 72 hrs by MTT assay; assay type: functional, cell-based; conditions: MCF7, 72 h
HT-29 = test: Cytotoxicity against human HT29 cells assessed as reduction in cell viability incubated for 72 hrs by MTT assay; conditions: HT-29, 72 h
[2] = Selectivity index, ratio of IC50 for human MRC5 cells to IC50 for human MCF7 cells; assay type: toxicity; conditions: MRC5 cells versus MCF7 cells, read-out: Ratio IC50
[3] = Selectivity index, ratio of IC50 for human MRC5 cells to IC50 for human HT29 cells; assay type: toxicity; conditions: MRC5 cells versus HT29 cells, read-out: Ratio IC50
NCI/ADR-RES [4] = test: Cytotoxicity against human MCF7/ADR cells assessed as reduction in cell viability incubated for 72 hrs by MTT assay
[5] = Reversal of multidrug resistant activity in human MCF7/ADR cells assessed as reversal fold after 72 hrs by MTT assay; assay type: functional, NCI/ADR-RES
NCI/ADR-RES [6] = test: Synergistic cytotoxicity against human MCF7/ADR cells assessed as combination index at 0.25 uM after 72 hrs in presence of 0.25 uM doxorubicin by MTT assay; assay type: functional
NCI/ADR-RES [7] = test: Synergistic cytotoxicity against human MCF7/ADR cells assessed as combination index at 0.25 uM after 72 hrs in presence of 0.5 uM doxorubicin by MTT assay; assay type: functional
NCI/ADR-RES [8] = test: Synergistic cytotoxicity against human MCF7/ADR cells assessed as combination index at 0.25 uM after 72 hrs in presence of 1 uM doxorubicin by MTT assay; assay type: functional
NCI/ADR-RES [9] = test: Synergistic cytotoxicity against human MCF7/ADR cells assessed as combination index at 0.5 uM after 72 hrs in presence of 0.25 uM doxorubicin by MTT assay; assay type: functional
NCI/ADR-RES [10] = test: Synergistic cytotoxicity against human MCF7/ADR cells assessed as combination index at 0.5 uM after 72 hrs in presence of 1 uM doxorubicin by MTT assay; assay type: functional
NCI/ADR-RES [11] = test: Synergistic cytotoxicity against human MCF7/ADR cells assessed as combination index at 1 uM after 72 hrs in presence of 0.25 uM doxorubicin by MTT assay; assay type: functional
NCI/ADR-RES [12] = test: Synergistic cytotoxicity against human MCF7/ADR cells assessed as combination index at 1 uM after 72 hrs in presence of 0.5 uM doxorubicin by MTT assay; assay type: functional
[13] = target: T1, ATP-dependent translocase ABCB1 (Homo sapiens, UniProt P08183); test: Inhibition of P-gp activity in human MCF7/ADR cells after 72 hrs by RT-PCR analysis; assay type: cell-based; conditions: nci/adr-res, at 125 to 1000 nM, dose 125-1000 nM
T1 sequence (P08183 whole entry): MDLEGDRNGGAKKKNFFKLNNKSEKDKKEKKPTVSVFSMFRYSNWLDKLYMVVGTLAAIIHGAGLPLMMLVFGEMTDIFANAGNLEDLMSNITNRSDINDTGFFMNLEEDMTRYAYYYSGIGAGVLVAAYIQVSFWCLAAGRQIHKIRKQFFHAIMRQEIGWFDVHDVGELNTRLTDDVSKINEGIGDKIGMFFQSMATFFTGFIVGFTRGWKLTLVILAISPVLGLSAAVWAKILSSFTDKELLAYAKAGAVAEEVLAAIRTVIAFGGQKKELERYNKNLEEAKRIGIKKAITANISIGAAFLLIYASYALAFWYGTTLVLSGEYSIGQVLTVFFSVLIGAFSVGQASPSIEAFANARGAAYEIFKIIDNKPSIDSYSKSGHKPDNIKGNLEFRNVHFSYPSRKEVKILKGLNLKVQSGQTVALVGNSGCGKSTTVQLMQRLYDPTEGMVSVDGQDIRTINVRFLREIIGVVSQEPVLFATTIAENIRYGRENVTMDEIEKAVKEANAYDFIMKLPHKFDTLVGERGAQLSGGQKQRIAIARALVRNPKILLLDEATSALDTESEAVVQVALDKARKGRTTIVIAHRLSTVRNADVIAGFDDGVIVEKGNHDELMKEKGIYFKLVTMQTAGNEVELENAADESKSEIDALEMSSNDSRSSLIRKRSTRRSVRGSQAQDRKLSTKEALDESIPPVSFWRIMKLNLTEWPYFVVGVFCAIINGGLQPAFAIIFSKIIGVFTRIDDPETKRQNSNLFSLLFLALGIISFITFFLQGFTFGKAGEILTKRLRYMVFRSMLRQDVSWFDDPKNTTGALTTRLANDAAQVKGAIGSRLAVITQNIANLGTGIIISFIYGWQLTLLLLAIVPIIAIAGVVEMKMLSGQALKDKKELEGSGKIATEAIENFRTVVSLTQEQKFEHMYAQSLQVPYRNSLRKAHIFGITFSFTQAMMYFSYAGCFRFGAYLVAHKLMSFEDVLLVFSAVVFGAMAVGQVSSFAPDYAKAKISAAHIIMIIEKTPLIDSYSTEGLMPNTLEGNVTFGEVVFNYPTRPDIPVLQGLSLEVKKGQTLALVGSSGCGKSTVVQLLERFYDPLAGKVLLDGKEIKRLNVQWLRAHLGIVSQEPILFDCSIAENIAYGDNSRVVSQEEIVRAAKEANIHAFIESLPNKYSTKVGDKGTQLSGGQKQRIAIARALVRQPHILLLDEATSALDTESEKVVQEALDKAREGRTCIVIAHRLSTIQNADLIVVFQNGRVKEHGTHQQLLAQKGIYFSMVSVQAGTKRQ

[14] = target: T1, ATP-dependent translocase ABCB1; test: Inhibition of P-gp activity in human MCF7/ADR cells at 250 nM after 72 hrs by RT-PCR analysis relative to control; assay type: cell-based, NCI/ADR-RES; conditions: nci/adr-res, 72 h, 0.25 µM
[15] = target: T1, ATP-dependent translocase ABCB1; test: Inhibition of P-gp activity in human MCF7/ADR cells at 500 nM after 72 hrs by RT-PCR analysis relative to control; assay type: cell-based, NCI/ADR-RES; conditions: nci/adr-res, 72 h, 0.5 µM
[16] = target: T1, ATP-dependent translocase ABCB1; test: Inhibition of P-gp activity in human MCF7/ADR cells at 1000 nM after 72 hrs by RT-PCR analysis relative to control; assay type: cell-based, NCI/ADR-RES; conditions: nci/adr-res, 72 h, 1 µM
[17] = target: T1, ATP-dependent translocase ABCB1; test: Inhibition of P-gp in human MCF7/ADR cells assessed as increase in Rho123 accumulation measured after 2 hrs by flow cytometry; assay type: cell-based; conditions: nci/adr-res
MCF7 [18] = test: Cell cycle arrest in human MCF7 cells assessed as accumulation at pre-G1 phase at 0.125 uM incubated for 72 hrs by PI staining based flow cytometric analysis (reference value: 1.6 +/- 0.2 %); assay type: functional
MCF7 [19] = test: Cell cycle arrest in human MCF7 cells assessed as accumulation at G1 phase at 0.125 uM incubated for 72 hrs by PI staining based flow cytometric analysis (reference value: 56.9 +/- 5.6 %); assay type: functional
MCF7 [20] = test: Cell cycle arrest in human MCF7 cells assessed as accumulation at G1 phase at 0.250 uM incubated for 72 hrs by PI staining based flow cytometric analysis (reference value: 56.9 +/- 5.6 %); assay type: functional; conditions: dose 0.25 µM
MCF7 [21] = test: Cell cycle arrest in human MCF7 cells assessed as accumulation at G1 phase at 0.5 uM incubated for 72 hrs by PI staining based flow cytometric analysis (reference value: 56.9 +/- 5.6 %); assay type: functional
MCF7 [22] = test: Cell cycle arrest in human MCF7 cells assessed as accumulation at S phase at 0.250 uM incubated for 72 hrs by PI staining based flow cytometric analysis (reference value: […] +/- 2.6 %); assay type: functional; conditions: dose 0.25 µM
MCF7 [23] = test: Cell cycle arrest in human MCF7 cells assessed as accumulation at G2/M phase at 0.250 uM incubated for 72 hrs by PI staining based flow cytometric analysis (reference value: 15 +/- 1.5 %); assay type: functional; conditions: dose 0.25 µM
MCF7 [24] = test: Cell cycle arrest in human MCF7 cells assessed as accumulation at G2/M phase at 0.5 uM incubated for 72 hrs by PI staining based flow cytometric analysis (reference value: 15 +/- 1.5 %); assay type: functional
MCF7 [25] = test: Induction of apoptosis in human MCF7 cells assessed as viable cells at 0.125 uM after 72 hrs by Annexin V-FITC/propidium iodide staining-based flow cytometric analysis (reference value: 86.4 %); assay type: functional; conditions: read-out: Activity
MCF7 [26] = test: Induction of apoptosis in human MCF7 cells assessed as early apoptotic cells at 0.125 uM after 72 hrs by Annexin V-FITC/propidium iodide staining-based flow cytometric analysis (reference value: 4.6 %); assay type: functional
MCF7 [27] = test: Induction of apoptosis in human MCF7 cells assessed as late apoptotic cells at 0.125 uM after 72 hrs by Annexin V-FITC/propidium iodide staining-based flow cytometric analysis (reference value: 2.8 %); assay type: functional
MCF7 [28] = test: Induction of apoptosis in human MCF7 cells assessed as viable cells at 0.250 uM after 72 hrs by Annexin V-FITC/propidium iodide staining-based flow cytometric analysis (reference value: 86.4 %); assay type: functional; conditions: read-out: Activity
MCF7 [29] = test: Induction of apoptosis in human MCF7 cells assessed as early apoptotic cells at 0.250 uM after 72 hrs by Annexin V-FITC/propidium iodide staining-based flow cytometric analysis (reference value: 4.6 %); assay type: functional; conditions: dose 0.25 µM
MCF7 [30] = test: Induction of apoptosis in human MCF7 cells assessed as late apoptotic cells at 0.250 uM after 72 hrs by Annexin V-FITC/propidium iodide staining-based flow cytometric analysis (reference value: 2.8 %); assay type: functional; conditions: dose 0.25 µM
MCF7 [31] = test: Induction of apoptosis in human MCF7 cells assessed as necrotic cells at 0.250 uM after 72 hrs by Annexin V-FITC/propidium iodide staining-based flow cytometric analysis (reference value: 6.2 %); assay type: functional; conditions: dose 0.25 µM
MCF7 [32] = test: Induction of apoptosis in human MCF7 cells assessed as early apoptotic cells at 0.5 uM after 72 hrs by Annexin V-FITC/propidium iodide staining-based flow cytometric analysis (reference value: 4.6 %); assay type: functional
MCF7 [33] = test: Induction of apoptosis in human MCF7 cells assessed as late apoptotic cells at 0.5 uM after 72 hrs by Annexin V-FITC/propidium iodide staining-based flow cytometric analysis (reference value: 2.8 %); assay type: functional
MCF7 [34] = test: Induction of apoptosis in human MCF7 cells assessed as necrotic cells at 0.5 uM after 72 hrs by Annexin V-FITC/propidium iodide staining-based flow cytometric analysis (reference value: 6.2 %); assay type: functional

For `N#Cc1c2n(c3c(=O)n(-c4ccccc4)cnc13)CCCC2`, the IC50 (MCF7 [1]) was 300 nM, the IC50 (HT-29) was 1070 nM and the selectivity ratio [2] was 4.83. For the same compound, the selectivity ratio [3] was 1.36, the IC50 (NCI/ADR-RES [4]) was 6.01 µM and the “fold change (FC)” value [5] was 15.57. The CI (NCI/ADR-RES [6]) was 0.927, the CI (NCI/ADR-RES [7]) was 0.631 and the CI (NCI/ADR-RES [8]) was 0.433. It also gave a CI (NCI/ADR-RES [9]) of 1.9, a CI (NCI/ADR-RES [10]) of 1.552 and a CI (NCI/ADR-RES [11]) of 0.211. For the same compound, the CI (NCI/ADR-RES [12]) was 0.08, the “inhibition (INH)” value [13] was “Dose-Dependent Effect” and the “inhibition (INH)” value [14] was 176%. For the same compound, the “inhibition (INH)” value [15] was 190%, the “inhibition (INH)” value [16] was 220% and the “inhibition (INH)” value [17] was “Dose-Dependent Effect”. For the same compound, the Activity (MCF7 [18]) was 1.6%, the Activity (MCF7 [19]) was 61% and the Activity (MCF7 [20]) was 75.2%. The Activity (MCF7 [21]) was 77.8%, the Activity (MCF7 [22]) was 5.5% and the Activity (MCF7 [23]) was 18%. The Activity (MCF7 [24]) was 18.9%, the viability at 0.125 µM (MCF7 [25]) was 86.3% and the Activity (MCF7 [26]) was 6.6%. For the same compound, the Activity (MCF7 [27]) was 1.7%, the viability at 0.25 µM (MCF7 [28]) was 68.2% and the Activity (MCF7 [29]) was 7.5%. It also gave an Activity (MCF7 [30]) of 13.6%, an Activity (MCF7 [31]) of 10.7% and an Activity (MCF7 [32]) of 22.8%. The Activity (MCF7 [33]) was 2.1% and the Activity (MCF7 [34]) was 4.8%.
